A short description of the assay: Odor threshold concentration (Log T / Log ODT) by gas chromatograph sniff port with panelists. Set-up: species or system human. The procedure: “High impact perfume raw materials” should be understood as perfume raw materials having a Log T<−4. The odor threshold concentration of a chemical compound is determined in part by its shape, polarity, partial charges and molecular mass. For convenience, the threshold concentration is presented as the common logarithm of the threshold concentration, i.e., Log [Threshold] (“Log T”).
The odor threshold concentration of a perfuming compound is determined by using a gas chromatograph (“GC”). Specifically, the gas chromatograph is calibrated to determine the exact volume of the perfume oil ingredient injected by the syringe, the precise split ratio, and the hydrocarbon response using a hydrocarbon standard of known concentration and chain-length distribution. The air flow rate is accurately measured and, assuming the duration of a human inhalation to last 12 seconds, the sampled volume is calculated. […] To determine the threshold concentration, solutions are delivered to the sniff port at the back-calculated concentration. A panelist sniffs the GC effluent and identifies the retention time when odor is noticed. The average across all panelists determines the odor threshold concentration of the perfuming compound. The determination of odor threshold is described in more detail in C.

Setting [1] is: ingredient of Perfume oil B (Table 3).
Where [2] appears, read: ingredient of Perfume oil C (Table 5).
Where [3] appears, read: ingredient of Perfume oil D (Table 7).
The mark [4] stands for this setting: ingredient of Perfume oil A (Table 1).

With `C=CCCC(=O)C1=CCCC(C)(C)C1`, the “Log ODT” value under setting [1] was less than −4 and the “Log ODT” value under setting [2] is on record as less than −4.
Regarding `CC12CCC(CC1)C(C)(C)O2`, the “Log ODT” value is reported as more than −4 under setting [1], more than −4 under setting [2] and more than −4 under setting [3].
For `COc1nccnc1CCCC(C)C`, under setting [1], the “Log ODT” value is on record as less than −4.
With `CC1(C)CC=C(CCC=O)CC1`, the “Log ODT” value under setting [4] was more than −4.
The same measure, in the same setting: the same measure for `CC(=O)/C=C/C1=C(C)CCCC1(C)C`: less than −4.
Turning to “1-OXA-12-CYCLOHEXADECEN-2-ONE (A) + 1-OXA-13-CYCLOHEXADECEN-2-ONE (B)”, the “Log ODT” value under setting [2] is more than −4.
“2-METHYLBUTYL SALICYLATE (A) + PENTYL SALICYLATE (B)”: under setting [4], the “Log ODT” value is given as more than −4.
Take “3,5,6-TRIMETHYL-3-CYCLOHEXENE-1-CARBALDEHYDE (A) + 2,4,6-TRIMETHYL-3-CYCLOHEXENE-1-CARBALDEHYDE (B)”: the “Log ODT” value under setting [2] was more than −4.
Take “3,7-DIMETHYL-2,6-NONADIENENITRILE (A) + 3,7-DIMETHYL-3,6-NONADIENENITRILE (B)”: the “Log ODT” value under setting [2] is reported as more than −4.
As to “3-(4-ETHYLPHENYL)-2,2-DIMETHYLPROPANAL (A) + 3-(2-ETHYLPHENYL)-2,2-DIMETHYLPROPANAL (B)”, the “Log ODT” value under setting [1] is given as more than −4.
As to “10-UNDECENAL (A) + (9E)-9-UNDECENAL (B) + (9Z)-9-UNDECENAL (C)”, the “Log ODT” value is less than −4 under setting [1] and less than −4 under setting [2].
On to `C/C=C/C(=O)[C@@H]1[C@@H](C)C=CCC1(C)C` (racemic), for which the “Log ODT” value under setting [4] is recorded as less than −4 and the “Log ODT” value under setting [1] is on record as less than −4.
Consider `CC(C)=CCCC(C)C=O` (racemic), for which the “Log ODT” value is recorded as more than −4 under setting [4] and more than −4 under setting [1].
Turning to `C=CC(C)CCCC(C)(C)O` (racemic), the “Log ODT” value under setting [4] is listed as more than −4.
For `CC(C)CCCC(C)CCO` (racemic), the “Log ODT” value under setting [1] is more than −4.
In the case of `C=CC(C)(CCC=C(C)C)OC(C)=O` (racemic) [(+−)-1,5-DIMETHYL-1-VINYL-4-HEXENYL ACETATE], the “Log ODT” value by setting is: under setting [4], more than −4; under setting [2], more than −4.
For `CC1=CCC(C(C)(C)S)CC1` (racemic) [(+−)-2-(4-METHYL-3-CYCLOHEXEN-1-YL)-2-PROPANETHIOL], the “Log ODT” value is, setting by setting: under setting [1], less than −4; under setting [2], less than −4.
Consider `CCCCCCCCCC(C)C=O` (racemic) [(+−)-2-METHYLUNDECANAL], for which the “Log ODT” value is, setting by setting: under setting [4], less than −4; under setting [1], less than −4; under setting [2], less than −4; under setting [3], less than −4.
With `CC(C)c1cccc(C(C)CC=O)c1` (racemic) [(+−)-3-(3-ISOPROPYL-1-PHENYL)BUTANAL], the “Log ODT” value under setting [1] is less than −4.
`CCCCCCCC1CCC(=O)O1` (racemic) [(+−)-5-HEPTYLDIHYDRO-2(3H)-FURANONE]: under setting [2], the “Log ODT” value is recorded as less than −4.
Turning to `CC/C=C(\C)C(O)CCCCC` (racemic) [(+−)-(E)-4-METHYL-3-DECEN-5-OL], the “Log ODT” value is more than −4 under setting [4] and more than −4 under setting [1].
Take `CCOC(=O)C(C)CC` (racemic) [(+−)-ETHYL 2-METHYLBUTANOATE]: the “Log ODT” value under setting [4] was more than −4.
For `CCCCC[C@H]1C(=O)CC[C@@H]1CC(=O)OC` (racemic) [METHYL 2-((1RS,2RS)-3-OXO-2-PENTYLCYCLOPENTYL)ACETATE], the “Log ODT” value is recorded as more than −4 under setting [4] and more than −4 under setting [2].
For `CC1=CCC2C[C@@H]1C2(C)C` (single isomer, unassigned; (-)), the “Log ODT” value under setting [2] was more than −4.
On to `c1ccc(Oc2ccccc2)cc1` [1,1′-OXYDIBENZENE], for which the “Log ODT” value under setting [4] is more than −4.
The same measure, in the same setting: the same measure for `COc1ccc(C)cc1` [1-METHOXY-4-METHYLBENZENE]: more than −4.
As for `COc1ccc2ccccc2c1` [2-METHOXYNAPHTHALENE], the “Log ODT” value by setting is: under setting [2], less than −4; under setting [3], less than −4.
Regarding `CC(=O)OCCc1ccccc1` [2-PHENYLETHYL ACETATE], under setting [4], the “Log ODT” value is reported as more than −4.
`CC1=CC2CC(C=O)C1CC2C(C)C` (centres unmarked) [8-ISOPROPYL-6-METHYL-BICYCLO[2.2.2]OCT-5-ENE-2-CARBALDEHYDE]: the “Log ODT” value reads like this: under setting [1], less than −4; under setting [3], less than −4.
Regarding `CC(=O)OCCC(C)CCC=C(C)C` (centres unmarked) [37-DIMETHYL-6-OCTENYL ACETATE], under setting [2], the “Log ODT” value is given as more than −4.
`CC(=O)O[C@@H]1CC2CC[C@]1(C)C2(C)C` [(1R,2R)-1,7,7-TRIMETHYL-BICYCLO[2.2.1]HEPT-2-YL ACETATE]: the “Log ODT” value by setting is: under setting [2], more than −4; under setting [3], more than −4.
Turning to `COCCc1ccccc1` [(2-METHOXYETHYL)BENZENE], under setting [1], the “Log ODT” value is listed as more than −4.
Consider `CC/C=C\CCOC(C)=O` [(Z)-3-HEXENYL ACETATE], for which the “Log ODT” value under setting [2] is more than −4.
On the same count and under the same terms, the figure for `CC/C=C\CCOC(=O)C(C)C` [(Z)-3-HEXENYL ISOBUTYRATE] is more than −4.
`CC1(C)CCC[C@]2(C)[C@H]3CCO[C@]3(C)CC[C@@H]12` [(−)-(3AR,5AS,9AS,9BR)-3A,6,6,9A-TETRAMETHYLDODECAHYDRONAPHTHO[2,1-B]FURAN]: the “Log ODT” value reads like this: under setting [1], less than −4; under setting [3], less than −4.
Turning to `CCCCCCCCCC(C)=O` [Capsule 2-UNDECANONE, 2-UNDECANONE], the “Log ODT” value under setting [1] is on record as more than −4.
Regarding `CCCCCCCCCC=O` [DECANAL], under setting [3], the “Log ODT” value is on record as more than −4.
For `CCCCCCOC(=O)c1ccccc1O` [HEXYL 2-HYDROXYBENZOATE], under setting [4], the “Log ODT” value is on record as more than −4.
Still for that read-out and setting: the same measure for `CCCCCCOC(C)=O` [HEXYL ACETATE]: more than −4.
For the molecule `CCCCCCCC=O` [OCTANAL], the “Log ODT” value under setting [3] is given as more than −4.
`O=C1CCCCCCCCCCCCCCO1` [OXACYCLOHEXADECAN-2-ONE]: the “Log ODT” value under setting [2] was more than −4.
With “(1RS,2RS)-2,4-DIMETHYL-3-CYCLOHEXENE-1-CARBALDEHYDE (A) + (1RS,2SR)-2,4-DIMETHYL-3-CYCLOHEXENE-1-CARBALDEHYDE (B)”, the “Log ODT” value is more than −4 under setting [4] and more than −4 under setting [2].
In the case of “(2RS,4SR)-4-METHYL-2-(2-METHYL-1-PROPEN-1-YL)TETRAHYDRO-2H-PYRAN (A) + (2RS,4RS)-4-METHYL-2-(2-METHYL-1-PROPEN-1-YL)TETRAHYDRO-2H-PYRAN (B)”, the “Log ODT” value under setting [4] was more than −4 and the “Log ODT” value under setting [1] is more than −4.
As for “(2Z)-1,1-DIETHOXY-3,7-DIMETHYL-2,6-OCTADIENE (A) + (2E)-1,1-DIETHOXY-3,7-DIMETHYL-2,6-OCTADIENE (B)”, the “Log ODT” value is more than −4 under setting [1] and more than −4 under setting [3].
For “(+)-(3S)-3-[(1R)-4-METHYL-3-CYCLOHEXEN-1-YL]BUTANAL (A) + (+)-(3R)-3-[(1R)-4-METHYL-3-CYCLOHEXEN-1-YL]BUTANAL”, the “Log ODT” value under setting [3] is on record as more than −4.
For “(+−)-4-METHYLENE-2-PHENYLTETRAHYDRO-2H-PYRAN (A) + (+−)-4-METHYL-6-PHENYL-3,6-DIHYDRO-2H-PYRAN (B) + (+−)-4-METHYL-2-PHENYL-3,6-DIHYDRO-2H-PYRAN (C)”, the “Log ODT” value runs as follows: under setting [1], less than −4; under setting [3], less than −4.
Take “(+−)-(3E)-3-METHYL-4-(2,6,6-TRIMETHYL-2-CYCLOHEXEN-1-YL)-3-BUTEN-2-ONE (A) + (+−)-(1E)-1-(2,6,6-TRIMETHYL-2-CYCLOHEXEN-1-YL)-1-PENTEN-3-ONE (B)”: the “Log ODT” value under setting [2] is less than −4.
In the case of “.ALPHA.-DIHYDROTERPINEOL (A) + BETA.-DIHYDROTERPINEOL (B)”, the “Log ODT” value under setting [1] is more than −4.
For the molecule “TRICYCLO[5.2.1.0~2,6~]DEC-3-EN-8-YL ACETATE (A) + TRICYCLO[5.2.1.0~2,6~]DEC-4-EN-8-YL ACETATE (B)”, the “Log ODT” value under setting [4] was more than −4 and the “Log ODT” value under setting [1] is more than −4.

The values are drawn from patent US12486471B2, “Perfume formulation for delivery system” (FIRMENICH SA, priority 2019, dated 2025).
